{"source": "patent US20130029928A1", "about": "(priority 2010, published 2013)", "assay": "Phase I study CXR1002-001: plasma pharmacokinetics (LC-MS/MS)", "type": "in vivo, human", "conditions": "human, plasma, oral, person, plasma; for concentration at 24 h: 24 hr (Day 2); for concentration at 168 h: 168 hr (Day 8); for concentration at 336 h: 336 hr (Day 15); for concentration at 360 h: 360 hr (Day 16); for concentration at 504 h: 504 hr (Day 22); for concentration at 672 h: 672 hr (Day 29); for concentration at 696 h: 696 hr (Day 30); for concentration at 840 h: 840 hr (Day 36)", "description": "PK samples, PD (fasting) samples, blood glucose, and blood triglyceride samples, were taken over a 6-week period.\nDose limiting toxicity (DLT) will be based on the toxicity assessments over the first 3-week period of the repeat dosing schedule. PK samples (single blood sample) were taken on the following basis: • Every 6 weeks during the repeat dosing phase • If dosing is interrupted or stopped, samples will be taken at intervals according to patient convenience • PK sampling for safety evaluation may take place at any time, as clinically indicated\nPlasma samples were collected after the single 50 mg dose at the following timepoints: Pre-dose, and then 0.25, 0.5, 0.75, 1, 1.5, 2, 3, 4, 6, 24, 48, and 72 hours after administration and then once weekly at weeks 2, 3, 4, 5, and 6 (days 8, 15, 22, 29, and 36). For patients treated with the weekly repeat dose, plasma samples were collected at the following timepoints: Pre-dose and then 2, 3, 4 and 24 hours after administration for a total of 6 weeks. Thereafter a single sample was collected every 6 weeks for monitoring of exposure during long term treatment. Plasma samples were processed at site and stored at −80° C. prior to batch shipment to the analytical laboratory.", "key": {"[1]": {"conditions": "1000 mg, Patient 040, 1000 mg, read-out: Concentration"}, "[2]": {"conditions": "1200 mg, Patient 033, 1200 mg, read-out: Concentration"}}, "note": "Like-named read-outs stand apart in the source and are kept apart here.", "data": [{"smiles": "O=C(O)C(F)(F)C(F)(F)C(F)(F)C(F)(F)C(F)(F)C(F)(F)C(F)(F)F", "note": "[CXR1002]", "values": [{"measurement": "concentration at 4 h", "setting": "[1]", "value": 190, "unit": "µM"}, {"measurement": "concentration at 24 h", "setting": "[1]", "value": 148, "unit": "µM"}, {"measurement": "concentration at 168 h", "setting": "[1]", "value": 120, "unit": "µM"}, {"measurement": "concentration at 170 h", "setting": "[1]", "value": 368, "unit": "µM"}, {"measurement": "concentration at 171 h", "setting": "[1]", "value": 343, "unit": "µM"}, {"measurement": "concentration at 172 h", "setting": "1000 mg, Patient 040, 1000 mg, 172 hr, read-out: Concentration", "value": 326, "unit": "µM"}, {"measurement": "concentration at 192 h", "setting": "1000 mg, Patient 040, 1000 mg, 192 hr (Day 9), read-out: Concentration", "value": 272, "unit": "µM"}, {"measurement": "concentration at 336 h", "setting": "[1]", "value": 305, "unit": "µM"}, {"measurement": "concentration at 338 h", "setting": "[1]", "value": 487, "unit": "µM"}, {"measurement": "concentration at 339 h", "setting": "[1]", "value": 427, "unit": "µM"}, {"measurement": "concentration at 340 h", "setting": "[1]", "value": 476, "unit": "µM"}, {"measurement": "concentration at 360 h", "setting": "[1]", "value": 485, "unit": "µM"}, {"measurement": "concentration at 504 h", "setting": "[1]", "value": 353, "unit": "µM"}, {"measurement": "concentration at 506 h", "setting": "[1]", "value": 502, "unit": "µM"}, {"measurement": "concentration at 507 h", "setting": "1000 mg, Patient 040, 1000 mg, 507 hr, read-out: Concentration", "value": 554, "unit": "µM"}, {"measurement": "concentration at 508 h", "setting": "1000 mg, Patient 040, 1000 mg, 508 hr, read-out: Concentration", "value": 515, "unit": "µM"}, {"measurement": "concentration at 528 h", "setting": "1000 mg, Patient 040, 1000 mg, 528 hr (Day 23), read-out: Concentration", "value": 525, "unit": "µM"}, {"measurement": "concentration at 672 h", "setting": "[1]", "value": 490, "unit": "µM"}, {"measurement": "concentration at 674 h", "setting": "[1]", "value": 558, "unit": "µM"}, {"measurement": "concentration at 675 h", "setting": "[1]", "value": 533, "unit": "µM"}, {"measurement": "concentration at 676 h", "setting": "[1]", "value": 607, "unit": "µM"}, {"measurement": "concentration at 696 h", "setting": "[1]", "value": 697, "unit": "µM"}, {"measurement": "concentration at 840 h", "setting": "[1]", "value": 574, "unit": "µM"}, {"measurement": "concentration at 842 h", "setting": "[1]", "value": 626, "unit": "µM"}, {"measurement": "concentration at 843 h", "setting": "1000 mg, Patient 040, 1000 mg, 843 hr, read-out: Concentration", "value": 748, "unit": "µM"}, {"measurement": "concentration at 864 h", "setting": "1000 mg, Patient 040, 1000 mg, 864 hr (Day 37), read-out: Concentration", "value": 826, "unit": "µM"}, {"measurement": "concentration at 0 h", "setting": "1200 mg, Patient 033, 1200 mg, 0 hr (pre-dose)", "value": 0, "unit": "nM"}, {"measurement": "concentration at 2 h", "setting": "1200 mg, Patient 033, 1200 mg, 2 hr, read-out: Concentration", "value": 441, "unit": "µM"}, {"measurement": "concentration at 3 h", "setting": "1200 mg, Patient 033, 1200 mg, 3 hr, read-out: Concentration", "value": 396, "unit": "µM"}, {"measurement": "concentration at 4 h", "setting": "[2]", "value": 374, "unit": "µM"}, {"measurement": "concentration at 24 h", "setting": "[2]", "value": 371, "unit": "µM"}, {"measurement": "concentration at 168 h", "setting": "[2]", "value": 317, "unit": "µM"}, {"measurement": "concentration at 170 h", "setting": "[2]", "value": 735, "unit": "µM"}, {"measurement": "concentration at 171 h", "setting": "[2]", "value": 657, "unit": "µM"}, {"measurement": "concentration at 172 hr", "setting": "1200 mg, Patient 033, 1200 mg, 172 hr, read-out: Concentration", "value": 637, "unit": "µM"}, {"measurement": "concentration at 192 hr", "setting": "1200 mg, Patient 033, 1200 mg, 192 hr (Day 9), read-out: Concentration", "value": 591, "unit": "µM"}, {"measurement": "concentration at 336 h", "setting": "[2]", "value": 637, "unit": "µM"}, {"measurement": "concentration at 338 h", "setting": "[2]", "value": 926, "unit": "µM"}, {"measurement": "concentration at 339 h", "setting": "[2]", "value": 841, "unit": "µM"}, {"measurement": "concentration at 340 h", "setting": "[2]", "value": 817, "unit": "µM"}, {"measurement": "concentration at 360 h", "setting": "[2]", "value": 915, "unit": "µM"}, {"measurement": "concentration at 504 h", "setting": "[2]", "value": 713, "unit": "µM"}, {"measurement": "concentration at 506 h", "setting": "[2]", "value": 1150, "unit": "µM"}, {"measurement": "concentration at 507 hr", "setting": "1200 mg, Patient 033, 1200 mg, 507 hr, read-out: Concentration", "value": 1060, "unit": "µM"}, {"measurement": "concentration at 508 hr", "setting": "1200 mg, Patient 033, 1200 mg, 508 hr, read-out: Concentration", "value": 1010, "unit": "µM"}, {"measurement": "concentration at 672 h", "setting": "[2]", "value": 1020, "unit": "µM"}, {"measurement": "concentration at 674 h", "setting": "[2]", "value": 1230, "unit": "µM"}, {"measurement": "concentration at 675 h", "setting": "[2]", "value": 1110, "unit": "µM"}, {"measurement": "concentration at 676 h", "setting": "[2]", "value": 1100, "unit": "µM"}, {"measurement": "concentration at 696 h", "setting": "[2]", "value": 1110, "unit": "µM"}, {"measurement": "concentration at 840 h", "setting": "[2]", "value": 1040, "unit": "µM"}, {"measurement": "concentration at 842 h", "setting": "[2]", "value": 1110, "unit": "µM"}, {"measurement": "concentration at 843 hr", "setting": "1200 mg, Patient 033, 1200 mg, 843 hr, read-out: Concentration", "value": 1230, "unit": "µM"}, {"measurement": "concentration at 844 hr", "setting": "1200 mg, Patient 033, 1200 mg, 844 hr, read-out: Concentration", "value": 1200, "unit": "µM"}, {"measurement": "concentration at 864 hr", "setting": "1200 mg, Patient 033, 1200 mg, 864 hr (Day 37), read-out: Concentration", "value": 1320, "unit": "µM"}, {"measurement": "concentration at 2 hr", "setting": "1200 mg, Patient 034, 1200 mg, 2 hr, read-out: Concentration", "value": 440, "unit": "µM"}, {"measurement": "concentration at 3 hr", "setting": "1200 mg, Patient 034, 1200 mg, 3 hr, read-out: Concentration", "value": 401, "unit": "µM"}]}]}
